Results on three compounds are retold here after US6627601B2, “Neuroprotective peptides and uses thereof” (Protarga, Inc., priority 1998, dated 2003).

Where two headings read alike, the source gives them in different places. A value given as a limit tells only on which side of the number the result lay.

For assay [1], the system named is rat brain hippocampal cells. In words: glutamate induced neurotoxicity in hippocampal neuron cultures. To be noted: 3 days of culture. It is filed as cell-based. Here is the method: The effect of the neuroprotective peptides was tested on rat brain hippocampal cells. Rat brain hippocampi were isolated by dissection of 18 day old rat fetuses. […] The cultures were then incubated for 30 min at 37° C. after which glutamate was added at the concentrations indicated. Cells were counted after 3 days of culture; healthy cells and total cells were counted.

The nature of assay [2]: fura-2 calcium chelation assay in cells loaded with fura-2 and calcium. It is filed as cell-based. Here is the method: Any of the foregoing peptides can be tested for calcium binding by well known assays of calcium chelation (see, e.g. Cornell-Bell et al., Science 247:470-473, 1990; Cornell-Bell et al., Cell Calcium 12:185-204, 1991). For example, one preferred method employs the calcium sensitive dye fura-2 to measure the chelation of calcium by the isolated peptides. In such an assay, cells are loaded with fura-2 and calcium. […] An isolated peptide then is added to the cells and the diminution of fura-2 fluorescence is determined. Dose response experiments can be performed to determine the concentration at which the isolated peptide completely eliminates fura-2 fluorescence. For example, the isolated peptide of SEQ ID NO:4 completely eliminates fura-2 fluorescence at a concentration of 1 pg/ml in the cell culture medium.
Peptides, including variant peptides, can be tested for retention for any of the foregoing properties. For example, the peptides can be tested for in vitro properties initially to determine which of the variant peptides retain the ability to bind calcium ions and/or stimulate the expression of transcription factors. In vitro assays of calcium binding include contacting the peptide with an environment which contains calcium, such as a cell preloaded with calcium and a fluorescent calcium-sensitive dye, and determining the calcium binding of the peptide Peptides which retain one or more of these properties can then be used in in vivo assays of neuroprotection such as the Mongolian gerbil assay described below. Neuroprotective peptides or their variants which are conjugated to targeting compounds, labels, blood-brain barrier carriers and the like can be tested for retention of neuroprotective activity as well as for the activity of the conjugated compound (e.g., appropriate targeting, detectable labeling, ability to cross the blood-brain barrier, etc.).

Assay [3] relates to gerbil model for ischemic stroke (5 minute bilateral carotid occlusion). In words: general locomotor activity (GLA) of gerbils after forebrain ischemia. It is filed as in vivo, male Mongolian gerbil. The source says:
The gerbil (male Mongolian) has been widely used as an experimental model for studies of ischemic stroke because the brain blood supply is controlled by only two common carotid arteries. This unusual feature occurs in gerbils because they have an incomplete circle of Willis (Chandler et al., J. Pharmacol. Methods 14:137-146, 1985; Finkelstein et al., Restor. Neurol. Neurosci. 1:387-394, 1990; Levine and Sohn, Arch. Pathol. 87:315-317, 1969; Kahn, Neurology 22:510-515, 1972). A five minute bilateral carotid occlusion results in neuronal cell death that is predominantly localized in the CA1 subfield of the hippocampus. The CA1 neurons degenerate and virtually disappear by 7-8 days after ischemia (Akira, Res. in Immunol. 143:734-736 1992; Crain et al., Neurosci. 27:387-402, 1988). In addition, the gerbil model has the advantage that within one day after ischemia the animals increase by 100% to 200% their general locomotor activity. This readily measurable change can persist for at least eight days in most of the experimental animals (Akira, 1992; Kuroiwa et al., Neurosci. Lett. 122:141-144, 1991; Ohno et al., Eur. J Pharmacol. 193:357-361, 1991; Phillis, Brain Res. Bull. 23:467-470, 1989).
Male Mongolian gerbils were anesthetized with a mixture of isoflurane and oxygen using an inhalation apparatus (Stoelting Instrument Co.). An incision was made in the ventral neck and the common carotid arteries were isolated and occluded completely for a period of 5 minutes using microaneurysm clips. Next, the clips were removed and the incision sutured. The anesthesia was continued until the end of the i.v. injection and infusion period. Mean arterial blood pressure was monitored by a polyethylene catheter implanted in the left or right femoral […] during surgery. […]
GLA measurements were carried out in half hour sessions using the Stoelting Electronic Activity monitor (Shashoua et al., J. Med. Chem. 27:654-659, 1984; Jacob et al., J. Med. Chem. 30:1573-1576, 1987). Each gerbil's activity level was first assessed on days 3 and 1 prior to the experimental ischemia procedure to obtain a base line GLA data, then on days 1, 2, 5, and 7 after the carotid artery occlusion to determine efficacy of drug treatment. […]
Male Mongolian gerbils were anesthetized with a mixture of halothane and oxygen in Phase 1 of surgery and a cannula (an Alzet No. 2002 pump) was implanted subcutaneously in the midscapular region beneath the skin of the animal. […] All surgical procedures were carried out with a strict control of the temperature of each animal; rectal temperatures were monitored and heat was supplied via a temperature regulated heating pad. […]

Assay [4] deals with CA1 and CA3 hippocampal neurons. In words: histological cell density/survival of hippocampal neurons in gerbil brains after forebrain ischemia. It is filed as in vivo, male Mongolian gerbil. The method, then: At the time of the sacrifice, each animal was deeply anesthetized and perfused transcardially with heparinized saline followed by paraformaldehyde (4%) in phosphate buffered saline. After fixation the brains were placed in 30% sucrose for 3 days, embedded in glutaraldehyde-gelatin, cut frozen into 30μ serial sections for morphometric analysis, and stained with cresyl violet. The cell densities per 1000 microns2 were determined by computer assisted counting of grey level images at 300× viewed through an Axioplan microscope. It was determined that a maximum of 62% of the hippocampal pyramidal cells survived the ischemia in the presence of NMI 9236 as compared to 4% survival for the control saline non-drug treated animals. All analyses were carried out blind.
At 8 days post surgery the gerbils were sacrificed, perfusion fixed with formalin, and each perfused brain was embedded in glutaraldehyde-gelatin. About 300 serial sections (40 microns thick) were cut from each frozen brain, and stained with cresyl violet. Cell morphometric analysis was carried out on one out of every 10 sections by computer-assisted cell density counting of grey level images viewed at 300× through an Axioplan microscope. Focused camera input (Sony CCD) from the microscope to the IBS video screen of the Zeiss IBAS/KONTRON Image analysis system was normalized and segmented before assessing cell number. The average cell density present per a 1000 micron^2 region of the CA1 and CA3 pyramidal cell layers for the left and right side of each were determined. The analysis was carried out blind.

For assay [5], the system named is AP-1 transcription factor. The assay is described as follows: EMSA of AP-1 in nuclear extracts of neuroblastoma cultures. It is filed as cell-based, mouse. The method, then: (§1) It was determined that NMI 9236 can turn on specific genes related to neuronal growth in neuroblastoma tissue culture experiments.
(§2) The activation of specific transcription factors was assayed using an electrophoretic mobility shift assay (EMSA, for review see: Kerr, Meth. Enzymol 254:619-632, 1995). Nuclear extracts were prepared from stimulated neuroblastoma cell cultures (10^7 cells/sample) using classical nuclear extraction protocols (Dignam et al., Nucl. Acids Res. 11: 1475-1489, 1983; Prywes and Roeder, Cell 47: 777-784, 1986). A 0.5 pmol aliquot of a synthetic ^32P labeled oligomer duplex (with a sequence known to bind a specific transcription factor, see Table 2) was mixed with 3 μg of nuclear extract protein, and the mixture incubated at room temperature for 20 minutes. Subsequent electrophoresis under non-denaturing conditions through 4% polyacrylamide gels were used to separate and resolve the high MW protein/DNA complexes (transcription factor/DNA oligomer duplex) form low MW uncomplexed DNA oligomers. Autoradiography was used to visualize and quantify the complexes formed (see FIG. 6).
Using the electrophoretic mobility shift assay (EMSA) we tested for changes in concentration of transcription factors AP-1 and NF-IL6 in neuroblastoma nuclei as a function of stimulation by peptide NMI-9236. These two factors are well known to function in cell proliferation and differentiation, and to be activated by protein kinase-C. […] Identification of the two observed bands as Jun/Fos heterodimers and Jun/Jun homodimers was based on their electrophoretic migration, as well as antibody studies (data not shown).
(In general: In EMSA bound probe runs differently from free probe, usually more slowly.)

Assay [6] deals with NF-IL6 transcription factor. The assay is described as follows: EMSA of NF-IL6 in nuclear extracts of neuroblastoma cultures. It is filed as cell-based, mouse. The method, then: as §1, §2
Identification of the observed band as NF-IL6 ([…]) was based on its electrophoretic migration, as well as antibody studies (data not shown).

The next assay concerns neurons. To be noted: compared with 68 kilodalton parent protein; Shashoua et al., 1992; cited from earlier work.
Where [7] appears, read: 1 mg/kg i.v. @ 1 hr post ischemia, day 8, n=3.
The mark [8] stands for this setting: NB2a mouse neuroblastoma cultures, 5-50 μg/ml.
The mark [9] stands for this setting: neuroblastoma cells treated for 20 hours.
Setting [10] is: 2 mM glutamate + 12 μg/ml peptide.
Where [11] appears, read: 2 mM glutamate + 18 μg/ml peptide.

As to `N[C@@H](CCC(=O)O)C(=O)O` [glutamate, reference compound], in assay [1] (1 mM glutamate alone), the “% healthy” value is 51.5%, the Healthy cells was 35 and the Total cells amounted to 68. In assay [1] (2 mM glutamate alone), the “% healthy” value was determined as 40.8%, the Healthy cells is listed as 62 and the Total cells is recorded as 156.
Take “D-F-A-I-D-A-P-E (DFAIDAPE) [SEQ ID NO:10]”: the “calcium chelation (in words)” value is given as “chelate calcium as tightly as the peptide of SEQ ID NO:3” in assay [2] and “chelates calcium” in assay [2] (listed as SEQ ID NO: 10). Further, the “calcium chelation effectiveness relative to peptide of SEQ ID NO:4” value in assay [2] (fura-2 fluorescence) is given as “about half as effective as the peptide of SEQ ID NO:4”.
For the compound “K-K-D-G-D-G-D-F-A-I-D-A-P-E (KKDGDGDFAIDAPE) [NMI 9236, 14 amino acid peptide]”, in assay [2] (in the cell culture medium), the “concentration at which the peptide completely eliminates fura-2 fluorescence” value was 1 pg/mL. Further, the “average GLA, % of the day 1 data” value in assay [3] (1 mg/kg i.v. (femoral vein) at 1 hour after occlusion, saline control 225%) was 85%. Further, the “effect on GLA (in words)” value in assay [3] (i.v. injection at 10 minutes after the ischemic event, n=3) is listed as “blocked the development of enhanced GLA”. Also, the “GLA, % of own GLA one day prior to surgery” value in assay [3] (icv delivery by Alzet pump, 1 milligram per ml, 7 days pre- and 7 days post-ischemia, n=4) is recorded as 80%. The compound also showed a GLA value in assay [3] (subcutaneous (s.c.) injection at 1 hour after the surgery) of 200%. For the same compound, the “Cell Density CA1-Hippocampal field” value in assay [4] (setting [7]) was 13.3 ± 0.82 number of cells/1000 microns^2. Moreover, the “Cell Density CA3-Hippocampal field” value in assay [4] (setting [7]) is listed as 8.82 ± 0.42 number of cells/1000 microns^2. The “neuronal loss in CA1/CA3 versus sham operated controls (in words)” value in assay [4] (1 mg/kg i.v. bolus at 1 hr post ischemia) is on record as “essentially all the cells remained intact”. In assay [4] (icv into left lateral ventricle, 8 days post-ischemia, left side), the “survival of L-CA1 neurons” value is given as 52±12%. In addition, the “survival of R-CA1 neurons” value in assay [4] (icv into left lateral ventricle, 8 days post-ischemia, right (unprotected) side) worked out at 4±2%. For the same compound, the “L-CA1 cell density as % of level of sham operated control brain” value in assay [4] (icv, 8 days post surgery) is listed as “about 50%”. The “L-CA1 cell density count” value in assay [4] (icv, 8 days post surgery, saline controls 0.6) came to 6.2 per 1000 micron^2. This compound also showed a R-CA1 cell density in assay [4] (icv, 8 days post surgery, stated comparable to saline controls) of around 0.6 per 1000 micron^2. For the same compound, in assay [4] (in the presence of NMI 9236, 4% for control saline animals), the “maximum survival of hippocampal pyramidal cells after ischemia” value is at most 62%. Besides, the “AP-1 activation, densitometric scans of the EMSA” value in assay [5] is 3-5 fold. For the same compound, the “activation of AP-1 relative to control” value was “less pronounced” in assay [5] (30 min); “strong activation” in assay [5] (setting [9]); “very strong activation” in assay [5] (serum-free medium, 20 hours). The “level of AP-1 in the nuclei of the cells” value in assay [5] (setting [8]) is reported as “increase”. The “NF-IL6 activation, densitometric scan of the EMSA” value in assay [6] (1 μg/ml, in comparison to control) is 3-5 fold. Also, the “activation of NF-IL6 relative to control” value in assay [6] (30 min) is “less pronounced”; in assay [6] (setting [9]), “strong activation”; in assay [6] (serum-free medium, 20 hours), “very strong activation”. Further, the “level of NF-IL6 in the nuclei of the cells” value in assay [6] (setting [8]) is “increase”. For the same compound, the “% healthy” value was determined as 92% in assay [1] (setting [10]) and 81.6% in assay [1] (setting [11]). For the same compound, the Healthy cells in assay [1] (setting [10]) was 138; in assay [1] (setting [11]), 80. For the same compound, the Total cells was 150 in assay [1] (setting [10]) and 98 in assay [1] (setting [11]). In addition, the “promotion of growth and sprouting of neurons” value in the assay with neurons is “at least the same extent as its 68 kilodalton parent protein”.
